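Exposure lasted 48 hours, with cells grown in 96-well plates and compounds tested at five concentrations. Here, GI50 denotes the concentration required for 50% inhibition of growth. TGI: total growth inhibition.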
Experiments:
Assay in all cases: NCI-60 cell line screen, 48 h
UACC-257 melanoma = system: UACC-257 melanoma
MOLT-4 leukemia = system: MOLT-4 leukemia
K-562 leukemia = system: K-562 leukemia
PC-3 prostate = system: PC-3 prostate
786-0 renal = system: 786-0 renal
SK-MEL-2 melanoma = system: SK-MEL-2 melanoma
MDA-MB-435 = system: MDA-MB-435
UO-31 renal = system: UO-31 renal
M14 melanoma = system: M14 melanoma
SN12C renal = system: SN12C renal
COLO 205 colon = system: COLO 205 colon
U251 CNS = system: U251 CNS
EKVX NSCLC = system: EKVX NSCLC
CCRF-CEM leukemia = system: CCRF-CEM leukemia
NCI-H226 lung = system: NCI-H226 lung
SNB-19 CNS = system: SNB-19 CNS
HOP-92 NSCLC = system: HOP-92 NSCLC
OVCAR-5 ovarian = system: OVCAR-5 ovarian
SW-620 colon = system: SW-620 colon
T-47D breast = system: T-47D breast
SK-MEL-5 melanoma = system: SK-MEL-5 melanoma
NCI/ADR-RES ovarian = system: NCI/ADR-RES ovarian
HT29 colon = system: HT29 colon
CAKI-1 renal = system: CAKI-1 renal
OVCAR-8 ovarian = system: OVCAR-8 ovarian
SR leukemia = system: SR leukemia
ACHN renal = system: ACHN renal
NCI-H522 lung = system: NCI-H522 lung
NCI-H460 lung = system: NCI-H460 lung
SF-268 CNS = system: SF-268 CNS
HL-60(TB) leukemia = system: HL-60(TB) leukemia
HOP-62 NSCLC = system: HOP-62 NSCLC
HCT-15 colon = system: HCT-15 colon
A549 NSCLC = system: A549 NSCLC
MDA-MB-231 breast = system: MDA-MB-231 breast
OVCAR-4 ovarian = system: OVCAR-4 ovarian
KM12 colon = system: KM12 colon
SK-MEL-28 melanoma = system: SK-MEL-28 melanoma
RXF 393 renal = system: RXF 393 renal
HCT-116 colon = system: HCT-116 colon
SK-OV-3 ovarian = system: SK-OV-3 ovarian
HCC-2998 colon = system: HCC-2998 colon
IGROV1 ovarian = system: IGROV1 ovarian
SF-295 CNS = system: SF-295 CNS
NCI-H23 lung = system: NCI-H23 lung
TK-10 renal = system: TK-10 renal
LOX IMVI melanoma = system: LOX IMVI melanoma
UACC-62 melanoma = system: UACC-62 melanoma
OVCAR-3 ovarian = system: OVCAR-3 ovarian
DU-145 prostate = system: DU-145 prostate

Cc1cc(-c2nc3sc(C)cn3c2/C=N/N=C(N)N)c(C)s1
GI50 (UACC-257 melanoma): 22.2 µM | TGI (UACC-257 melanoma): 44.2 µM | GI50 (MOLT-4 leukemia): > 100 µM | TGI (MOLT-4 leukemia): > 100 µM | GI50 (K-562 leukemia): > 100 µM | TGI (K-562 leukemia): > 100 µM | GI50 (PC-3 prostate): 3.65 µM | TGI (PC-3 prostate): 15.5 µM | GI50 (786-0 renal): 8.68 µM | TGI (786-0 renal): 21.1 µM | GI50 (SK-MEL-2 melanoma): 40.8 µM | TGI (SK-MEL-2 melanoma): > 100 µM | GI50 (MDA-MB-435): 2130 nM | TGI (MDA-MB-435): 4.79 µM | GI50 (UO-31 renal): 32.7 µM | TGI (UO-31 renal): > 100 µM | GI50 (M14 melanoma): 1700 nM | TGI (M14 melanoma): 3.11 µM | GI50 (SN12C renal): 14 µM | TGI (SN12C renal): 28.3 µM | GI50 (COLO 205 colon): 4.76 µM | TGI (COLO 205 colon): 19 µM | GI50 (U251 CNS): 11.2 µM | TGI (U251 CNS): 25.5 µM | GI50 (EKVX NSCLC): 14.8 µM | TGI (EKVX NSCLC): 30.6 µM | GI50 (CCRF-CEM leukemia): 2490 nM | TGI (CCRF-CEM leukemia): 5.06 µM | GI50 (NCI-H226 lung): 20.8 µM | TGI (NCI-H226 lung): 40.8 µM | GI50 (SNB-19 CNS): 18.2 µM | TGI (SNB-19 CNS): 36.2 µM | GI50 (HOP-92 NSCLC): 3.03 µM | TGI (HOP-92 NSCLC): 8.21 µM | GI50 (OVCAR-5 ovarian): 13.2 µM | TGI (OVCAR-5 ovarian): 28.1 µM | GI50 (SW-620 colon): 3.33 µM | TGI (SW-620 colon): 18.4 µM | GI50 (T-47D breast): 3.56 µM | TGI (T-47D breast): 13.8 µM | GI50 (SK-MEL-5 melanoma): 1890 nM | TGI (SK-MEL-5 melanoma): 3.8 µM | GI50 (NCI/ADR-RES ovarian): 14.6 µM | TGI (NCI/ADR-RES ovarian): 29.2 µM | GI50 (HT29 colon): 3.74 µM | TGI (HT29 colon): 20.2 µM | GI50 (CAKI-1 renal): 17.4 µM | TGI (CAKI-1 renal): 32.4 µM | GI50 (OVCAR-8 ovarian): 17.6 µM | TGI (OVCAR-8 ovarian): 43.6 µM | GI50 (SR leukemia): > 100 µM | TGI (SR leukemia): > 100 µM | GI50 (ACHN renal): 18.7 µM | TGI (ACHN renal): 34.4 µM | GI50 (NCI-H522 lung): 25.7 µM | TGI (NCI-H522 lung): > 100 µM | GI50 (NCI-H460 lung): 6.18 µM | TGI (NCI-H460 lung): 21.5 µM | GI50 (SF-268 CNS): 13.6 µM | TGI (SF-268 CNS): 28.9 µM | GI50 (HL-60(TB) leukemia): > 100 µM | TGI (HL-60(TB) leukemia): > 100 µM | GI50 (HOP-62 NSCLC): 3.17 µM | TGI (HOP-62 NSCLC): 8.64 µM | GI50 (HCT-15 colon): 19.8 µM | TGI (HCT-15 colon): 40 µM | GI50 (A549 NSCLC): 21.5 µM | TGI (A549 NSCLC): 48.9 µM | GI50 (MDA-MB-231 breast): 3.49 µM | TGI (MDA-MB-231 breast): 16.3 µM | GI50 (OVCAR-4 ovarian): 10.7 µM | TGI (OVCAR-4 ovarian): 27.4 µM | GI50 (KM12 colon): 2680 nM | TGI (KM12 colon): 9.62 µM | GI50 (SK-MEL-28 melanoma): 2020 nM | TGI (SK-MEL-28 melanoma): 4.12 µM | GI50 (RXF 393 renal): 15 µM | TGI (RXF 393 renal): 32.7 µM | GI50 (HCT-116 colon): 1790 nM | TGI (HCT-116 colon): 3.37 µM | GI50 (SK-OV-3 ovarian): 20.9 µM | TGI (SK-OV-3 ovarian): 39.1 µM | GI50 (HCC-2998 colon): 1730 nM | TGI (HCC-2998 colon): 3.24 µM | GI50 (IGROV1 ovarian): 28.8 µM | TGI (IGROV1 ovarian): > 100 µM | GI50 (SF-295 CNS): 1780 nM | TGI (SF-295 CNS): 3.85 µM | GI50 (NCI-H23 lung): 14.6 µM | TGI (NCI-H23 lung): 28.2 µM | GI50 (TK-10 renal): 6.12 µM | TGI (TK-10 renal): 18.6 µM | GI50 (LOX IMVI melanoma): 13.3 µM | TGI (LOX IMVI melanoma): 29.8 µM | GI50 (UACC-62 melanoma): 16.5 µM | TGI (UACC-62 melanoma): 30.5 µM | GI50 (OVCAR-3 ovarian): 2040 nM | TGI (OVCAR-3 ovarian): 9.56 µM | GI50 (DU-145 prostate): 6.11 µM | TGI (DU-145 prostate): 23 µM

— PubChem BioAssay (NCI)
